Results on one compound are retold here after publication PMC3951181, “Rosamines Targeting the Cancer Oxidative Phosphorylation Pathway” (PLoS ONE, 2014).

A value given as a limit tells only on which side of the number the result lay.

The test system of data set [1] is panel of solid human tumor cell lines (MCF-7, HCT-116, HSC-2, HK-1). The data set can be described thus: MTT cell viability assay, panel of cancer cell lines. Format: cell-based. Particulars: mean over MCF-7, HCT-116, HSC-2, HK-1. As for the experimental part:
MCF-7 breast carcinoma and HCT-116 colon carcinoma cell lines were obtained from American Tissue Culture Collection (Virginia, USA) and maintained in RPMI 1640 medium supplemented with 10% FBS. HSC-2 oral cavity human squamous carcinoma cells were obtained from Health Science Research Resources Bank (Japan). HK-1, a previously characterized nasopharyngeal squamous carcinoma cells is a gift by Prof. Wong Y.C. from the University of Hong Kong. Both cell lines were grown in MEM medium supplemented with 10% FBS. For cell viability assay, cells at 4000 cells/well in 80 µl of medium were inoculated in 96-well plates and were allowed to adhere overnight. Cells were then treated with each compound at concentrations ranging from 0.001–10 µM giving the final volume of 100 µl in each well. At the end of incubation period, 15 µl of 5.0 mg/ml MTT in phosphate buffered saline (PBS) was added and incubated for 4 h. Medium and excessive MTT were aspirated and the resulting formazan was solubilized with 100 µl of dimethyl sulfoxide. Absorbance was read at 570 nm with SpectraMax M4 microplate spectrophotometer (Molecular Devices, CA).
The in vitro antitumor activity of rosamines was assessed using a 48 h endpoint cell viability methylthiazolyldiphenyl-tetrazolium bromide (MTT) assay against a panel of solid human tumor cell lines including breast carcinoma (MCF-7), colon carcinoma (HCT-116), oral squamous cell carcinoma (HSC-2) and nasopharyngeal carcinoma (HK-1). […] Within the halide series, cytotoxicities increase in the following order 4>3>[…] (Cl>Br>I), although not statistically significant (P>0.05).

For data set [2], the system named is NCI-60 human tumor cell lines. Put plainly: NCI-60 screen, sulforhodamine B, whole panel. As to conditions: overall value for the NCI-60 cell lines screen. Format: cell-based. How it is done:
NCI-60 cell panel screening was performed by the NCI/National Institutes of Health developmental therapeutics program (Bethesda, US). This platform allows the determination of growth inhibitory profiles of test compounds on 60 different human cancer cell lines, representing leukemia, melanoma and cancers of the lung, colon, central nervous system, ovary, breast, prostate, and renal subpanel. Sulforhodamine B assay was used to assess the cytotoxicity of test agents in a panel of 60 cell lines. Briefly, the human tumor cell lines of the cancer screening panel were grown in RPMI 1640 medium containing 5% FBS and 2 mM L-glutamine. For a typical screening experiment, cells were inoculated into 96 well microtiter plates in 100 µl at plating densities depending on the doubling time of individual cell lines. After cell inoculation, the microtiter plates are incubated at 37°C, 5% CO2 and 100% relative humidity for 24 h. Following incubation, aliquots of 100 µl of compound at different dilutions were added to the appropriate microtiter wells and were further incubated for 48 h. At the assay end-point, cells were fixed with trichloroacetic acid followed by Sulforhodamine B staining for cellular protein content. Sulforhodamine B absorbance was read at a wavelength of 515 nm as a measurement of cell density.

A further data set has as its target Complex I. Put plainly: Immunocapture ELISA microplate enzyme activity assay. Format: biochemical. Particulars: mouse liver mitochondria extract; 0.01–10 µM.
The next data set addresses Complex II (Mus musculus, UniProt Q8K2B3+Q9CQA3+Q9CXV1+Q9CZB0). The description is as above. Format: biochemical. Particulars: mouse liver mitochondria extract; 0.01–10 µM.
Data set [3] in a line: Body weight and adverse effects in treated mice. Format: in vivo. How it is done: Tumor allografts were initiated by subcutaneous injection of 5×10^5 4T1 mouse mammary carcinoma in 0.1 ml RPMI 1640 media into the inguinal mammary fat-pads of mice. Tumor growth was monitored and treatments were initiated when tumors reached volume of approximately 200 mm^3. To assess the tumor growth inhibition, 4T1 tumor bearing mice were randomized into groups with at least eight animals per group. […] For control group, normal saline was given. The animal weights and tumor volume were measured three times weekly for 14 d. The tumor volume was calculated using the equation: (length×width^2)/2 and relative tumor volume (RTV) was calculated for every tumor volume at any given time (VT) against the tumor volume at staging day (V0) using the equation: VT/V0. The RTV – time profile for each group was plotted and tumor growth delay in attaining a specified number of doublings compared to control was determined, [19]. Results were expressed as median ±95% confidence interval (n = 8).
Meanwhile, the terminal percent test/control (% T/C) values calculated at the end of experiment were 72% and 66% in mice receiving 5 mg/kg and 3 mg/kg (q2d×6) respectively. The antitumor efficacy of 5 is minimal as the % T/C attained after treatment had ended is not ≤40% activity, the minimal rating for a compound to be considered active. […]

Data set [4] is described as follows: Solubility in aqueous media for treatment stock. In kind it is physicochemical. Particulars: reconstitution of treatment stock at 10 mM. How it is done: Compounds 3, 4 and 6 were synthesized to test if meso-replacement with 4-bromobenzene 3, 4-chlorobenzene 4 or 2-furyl 6 groups would affect the anticancer activity. In addition, the 4-iodobenzene 7 or 2-thiofuran meso substituents 8 and unsymmetrical piperidine/[…] amine substituents were synthesized and investigated. Rosamines 1–4 and 7 were not appreciably water-soluble so they were reconstituted in DMSO at 10 mM as treatment stock.

Chain of Complex II (Q8K2B3 43-664): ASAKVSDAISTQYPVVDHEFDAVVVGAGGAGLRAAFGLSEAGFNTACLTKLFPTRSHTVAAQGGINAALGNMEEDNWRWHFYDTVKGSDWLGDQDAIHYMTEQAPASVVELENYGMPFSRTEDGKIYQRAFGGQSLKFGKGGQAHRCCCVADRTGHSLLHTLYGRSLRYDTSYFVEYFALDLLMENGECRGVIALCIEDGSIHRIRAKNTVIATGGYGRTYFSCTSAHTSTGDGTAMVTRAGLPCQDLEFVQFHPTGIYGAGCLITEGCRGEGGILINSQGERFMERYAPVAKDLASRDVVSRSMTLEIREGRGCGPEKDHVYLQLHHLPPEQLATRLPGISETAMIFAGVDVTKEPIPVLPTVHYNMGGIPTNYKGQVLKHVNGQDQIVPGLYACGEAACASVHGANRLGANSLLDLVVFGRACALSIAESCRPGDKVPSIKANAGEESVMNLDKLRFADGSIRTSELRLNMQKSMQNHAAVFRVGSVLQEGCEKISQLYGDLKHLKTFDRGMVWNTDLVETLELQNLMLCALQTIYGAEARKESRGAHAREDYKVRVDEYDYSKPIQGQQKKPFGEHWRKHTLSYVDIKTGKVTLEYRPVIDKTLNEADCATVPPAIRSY
Chain of Complex II (Q9CQA3 31-282): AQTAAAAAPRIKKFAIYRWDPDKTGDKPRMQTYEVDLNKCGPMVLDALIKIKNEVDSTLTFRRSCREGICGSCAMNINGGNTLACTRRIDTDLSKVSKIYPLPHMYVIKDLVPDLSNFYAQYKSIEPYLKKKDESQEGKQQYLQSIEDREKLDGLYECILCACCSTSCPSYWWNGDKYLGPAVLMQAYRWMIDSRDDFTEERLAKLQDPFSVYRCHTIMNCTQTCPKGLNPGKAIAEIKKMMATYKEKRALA
Chain of Complex II (Q9CZB0 30-169): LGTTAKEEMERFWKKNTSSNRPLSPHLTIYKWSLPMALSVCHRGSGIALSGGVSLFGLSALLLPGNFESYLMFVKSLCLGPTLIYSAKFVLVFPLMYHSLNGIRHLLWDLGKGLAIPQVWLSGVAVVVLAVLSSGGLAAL
Chain of Complex II (Q9CXV1 57-159): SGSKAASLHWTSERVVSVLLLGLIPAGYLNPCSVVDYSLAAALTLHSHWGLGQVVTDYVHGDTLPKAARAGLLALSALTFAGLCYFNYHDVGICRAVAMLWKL

Regarding `c1csc(-c2c3ccc(=[N+]4CCCCC4)cc-3oc3cc(N4CCCCC4)ccc23)c1` [Rosamine 5], the IC50 is 110 nM in data set [1], over 10 µM against Complex I and 9.6 ± 0.1 µM against Complex II. The GI50 in data set [2] (Homo sapiens) is 100 nM. Moreover, the Log10GI50 in data set [2] is −7. This compound also yielded a body weight loss in data set [3] (4T1 tumor bearing mice, 5 mg/kg or 3 mg/kg (q2d×6) i.v., 14 d) of at most 15%. Moreover, the adverse effects entry in data set [3] (mice, 10 mg/kg dose) is “unacceptable adverse effects such as weight loss, diarrhea and sudden death”. Further, the water solubility entry in data set [4] is “readily solubilized in aqueous media”.
